The text below walks through data of patent US7176313B2, “Anti acid-fast bacterial agent containing pyridonecarboxylic acids as active ingredient” (Daiichi Pharmaceutical Co., Ltd., priority 2000, dated 2007).

One assay deals with M. intracellulare. As to the kind of experiment: Antibacterial activity (MIC) against M. intracellulare. In kind it is cell-based, Mycobacterium intracellulare. The note with it: Table 3. Here is the method:
Antibacterial activity of the compounds of the invention was measured in accordance with the method described in the literature of Antimicrob. Agents and Chemother., 38, 2877 (1994), and the results are shown in Tables 3 to 8 in terms of MIC (μg/ml). In the tables, “OFLX” is an abbreviation of “OFLOXAIN”.

Another assay has as its system M. avium. The assay can be described thus: Antibacterial activity (MIC) against M. avium. Particulars: Table 3. It is filed as cell-based, Mycobacterium avium. Here is the method:
Antibacterial activity of the compounds of the invention was measured in accordance with the method described in the literature of Antimicrob. […] In the tables, “OFLX” is an abbreviation of “OFLOXAIN”.

Assay [1] concerns Mycobacterium tuberculosis (RFP sensitive). The assay can be described thus: Antibacterial activity (MIC) against Mycobacterium tuberculosis (RFP sensitive). It is filed as cell-based. The note with it: Table 5.

Converted amounts (≈) assume the structure as drawn. Some results are limits rather than exact numbers.

Turning to `COc1c(N2CC(N)C3(CC3)C2)c(F)cc2c(=O)c(C(=O)O)cn(C3CC3)c12` (stereo not drawn) [Compd. 7], the MIC (in general, the lowest concentration found to suppress growth) against M. intracellulare (M. intracellulare N-294) was 0.78 µg/mL (≈ 2.01 µM); in the assay on M. intracellulare (M. intracellulare N-313) it was 0.2 µg/mL (≈ 0.516 µM); against M. intracellulare (M. intracellulare N-338) it was 0.39 µg/mL (≈ 1.01 µM); in the assay with M. intracellulare (M. intracellulare N-345), 1.56 µg/mL (≈ 4.03 µM); against M. avium (M. avium N-357), 0.39 µg/mL (≈ 1.01 µM); with M. avium (M. avium N-444), 1.56 µg/mL (≈ 4.03 µM). The MIC against M. avium (M. avium N-458) amounted to 0.78 µg/mL (≈ 2.01 µM); with M. avium (M. avium N-472) it was 6.25 µg/mL (≈ 16.1 µM).
Consider `COc1c(N2CC(N)C3(CC3)C2)c(F)cc2c(=O)c(C(=O)O)cn([C@@H]3C[C@@H]3F)c12` (stereo partly drawn) [Compd. 8], for which the MIC with M. intracellulare (M. intracellulare N-294) was found to be 1.56 µg/mL (≈ 3.85 µM); with M. intracellulare (M. intracellulare N-313), 0.39 µg/mL (≈ 0.962 µM); against M. intracellulare (M. intracellulare N-338), 1.56 µg/mL (≈ 3.85 µM); in the assay with M. intracellulare (M. intracellulare N-345), 1.56 µg/mL (≈ 3.85 µM); in assay [1] (M. tuberculosis H37Rv), 0.10 µg/mL (≈ 0.247 µM); in assay [1] (M. tuberculosis Kurono), 0.05 µg/mL (≈ 0.123 µM). Also, the MIC in assay [1] (M. tuberculosis No. 40) worked out at 0.10 µg/mL (≈ 0.247 µM); in assay [1] (M. tuberculosis No. 41) it was 0.006 µg/mL (≈ 0.0148 µM); in assay [1] (M. tuberculosis No. 43) it was 0.78 µg/mL (≈ 1.92 µM); in assay [1] (M. tuberculosis No. 68), 0.20 µg/mL (≈ 0.493 µM); in the assay with M. avium (M. avium N-357), 1.56 µg/mL (≈ 3.85 µM); against M. avium (M. avium N-444), 1.56 µg/mL (≈ 3.85 µM). In addition, the minimal inhibitory concentration (MIC) in the assay on M. avium (M. avium N-458) came to 0.78 µg/mL (≈ 1.92 µM); with M. avium (M. avium N-472) it was 3.13 µg/mL (≈ 7.72 µM).
Take `Cc1c(N2CC3CCCNC3C2)c(F)cc2c(=O)c(C(=O)O)cn(C3CC3)c12` (stereo not drawn) [Compd. 9]: the minimal inhibitory concentration (MIC) came to 0.39 µg/mL (≈ 1.01 µM) against M. intracellulare (M. intracellulare N-294); 0.10 µg/mL (≈ 0.259 µM) against M. intracellulare (M. intracellulare N-313); 0.39 µg/mL (≈ 1.01 µM) in the assay with M. intracellulare (M. intracellulare N-338); 0.39 µg/mL (≈ 1.01 µM) against M. intracellulare (M. intracellulare N-345); 0.025 µg/mL (≈ 0.0649 µM) in assay [1] (M. tuberculosis H37Rv); 0.013 µg/mL (≈ 0.0337 µM) in assay [1] (M. tuberculosis Kurono). Further, the MIC in assay [1] (M. tuberculosis No. 40) is 0.013 µg/mL (≈ 0.0337 µM); in assay [1] (M. tuberculosis No. 41) it was below 0.003 µg/mL; in assay [1] (M. tuberculosis No. 43) it was 0.10 µg/mL (≈ 0.259 µM); in assay [1] (M. tuberculosis No. 68), 0.025 µg/mL (≈ 0.0649 µM); in the assay with M. avium (M. avium N-357), 0.10 µg/mL (≈ 0.259 µM); against M. avium (M. avium N-444) it was 0.10 µg/mL (≈ 0.259 µM). The minimum inhibitory concentration (MIC) was 0.10 µg/mL (≈ 0.259 µM) in the assay on M. avium (M. avium N-458) and 0.78 µg/mL (≈ 2.02 µM) with M. avium (M. avium N-472).
In the case of `Cc1c(N2CC3CCCNC3C2)c(F)cc2c(=O)c(C(=O)O)cn([C@@H]3C[C@@H]3F)c12` (stereo partly drawn) [Compd. 10], the MIC was determined as 0.39 µg/mL (≈ 0.967 µM) with M. intracellulare (M. intracellulare N-294); 0.10 µg/mL (≈ 0.248 µM) in the assay on M. intracellulare (M. intracellulare N-313); 0.39 µg/mL (≈ 0.967 µM) in the assay with M. intracellulare (M. intracellulare N-338); 0.78 µg/mL (≈ 1.93 µM) against M. intracellulare (M. intracellulare N-345); 0.013 µg/mL (≈ 0.0322 µM) in assay [1] (M. tuberculosis H37Rv); 0.006 µg/mL (≈ 0.0149 µM) in assay [1] (M. tuberculosis Kurono). For the same molecule, the minimal inhibitory concentration (MIC) in assay [1] (M. tuberculosis No. 40) was 0.006 µg/mL (≈ 0.0149 µM); in assay [1] (M. tuberculosis No. 41) it was below 0.003 µg/mL; in assay [1] (M. tuberculosis No. 43), 0.05 µg/mL (≈ 0.124 µM); in assay [1] (M. tuberculosis No. 68), 0.013 µg/mL (≈ 0.0322 µM); in the assay on M. avium (M. avium N-357) it was 0.05 µg/mL (≈ 0.124 µM); with M. avium (M. avium N-444), 0.39 µg/mL (≈ 0.967 µM). The minimum inhibitory concentration (MIC) in the assay on M. avium (M. avium N-458) stood at 0.10 µg/mL (≈ 0.248 µM); in the assay on M. avium (M. avium N-472), 0.39 µg/mL (≈ 0.967 µM).
`Cc1c(N2CC(N)C3(CC3)C2)c(F)cc2c(=O)c(C(=O)O)cn(C3CC3)c12` (stereo not drawn) [Compd. 11]: the minimal inhibitory concentration (MIC) came out at 1.56 µg/mL (≈ 4.2 µM) with M. intracellulare (M. intracellulare N-294); 0.39 µg/mL (≈ 1.05 µM) with M. intracellulare (M. intracellulare N-313); 1.56 µg/mL (≈ 4.2 µM) against M. intracellulare (M. intracellulare N-338); 3.13 µg/mL (≈ 8.43 µM) with M. intracellulare (M. intracellulare N-345); 0.05 µg/mL (≈ 0.135 µM) in assay [1] (M. tuberculosis H37Rv); 0.05 µg/mL (≈ 0.135 µM) in assay [1] (M. tuberculosis Kurono). Also, the MIC in assay [1] (M. tuberculosis No. 40) stood at 0.05 µg/mL (≈ 0.135 µM); in assay [1] (M. tuberculosis No. 41), 0.013 µg/mL (≈ 0.035 µM); in assay [1] (M. tuberculosis No. 43), 0.39 µg/mL (≈ 1.05 µM); in assay [1] (M. tuberculosis No. 68), 0.05 µg/mL (≈ 0.135 µM); against M. avium (M. avium N-357), 0.39 µg/mL (≈ 1.05 µM); with M. avium (M. avium N-444), 1.56 µg/mL (≈ 4.2 µM). Besides, the MIC in the assay on M. avium (M. avium N-458) is 0.39 µg/mL (≈ 1.05 µM); in the assay on M. avium (M. avium N-472) it was 3.13 µg/mL (≈ 8.43 µM).
Turning to `Cc1c(N2CC(N)C3(CC3)C2)c(F)cc2c(=O)c(C(=O)O)cn([C@@H]3C[C@@H]3F)c12` (stereo partly drawn) [Compd. 12], the MIC against M. intracellulare (M. intracellulare N-294) stood at 0.78 µg/mL (≈ 2 µM); against M. intracellulare (M. intracellulare N-313), 0.20 µg/mL (≈ 0.514 µM); against M. intracellulare (M. intracellulare N-338), 0.39 µg/mL (≈ 1 µM); in the assay with M. intracellulare (M. intracellulare N-345), 0.39 µg/mL (≈ 1 µM); in assay [1] (M. tuberculosis H37Rv), 0.025 µg/mL (≈ 0.0642 µM); in assay [1] (M. tuberculosis Kurono) it was 0.025 µg/mL (≈ 0.0642 µM). Further, the MIC in assay [1] (M. tuberculosis No. 40) was found to be 0.025 µg/mL (≈ 0.0642 µM); in assay [1] (M. tuberculosis No. 41), 0.006 µg/mL (≈ 0.0154 µM); in assay [1] (M. tuberculosis No. 43) it was 0.10 µg/mL (≈ 0.257 µM); in assay [1] (M. tuberculosis No. 68) it was 0.05 µg/mL (≈ 0.128 µM); with M. avium (M. avium N-357) it was 0.20 µg/mL (≈ 0.514 µM); in the assay with M. avium (M. avium N-444), 0.39 µg/mL (≈ 1 µM). The MIC came to 0.39 µg/mL (≈ 1 µM) in the assay with M. avium (M. avium N-458) and 1.56 µg/mL (≈ 4.01 µM) against M. avium (M. avium N-472).
As to `C[C@H]1COc2c(N3CC4CCCNC4C3)c(F)cc3c(=O)c(C(=O)O)cn1c23` (stereo partly drawn) [Compd. 13], the MIC with M. intracellulare (M. intracellulare N-294) was found to be 1.56 µg/mL (≈ 4.03 µM); in the assay on M. intracellulare (M. intracellulare N-313), 0.39 µg/mL (≈ 1.01 µM); in the assay on M. intracellulare (M. intracellulare N-338) it was 1.56 µg/mL (≈ 4.03 µM); in the assay on M. intracellulare (M. intracellulare N-345) it was 3.13 µg/mL (≈ 8.08 µM); in assay [1] (M. tuberculosis H37Rv), 0.05 µg/mL (≈ 0.129 µM); in assay [1] (M. tuberculosis Kurono), 0.05 µg/mL (≈ 0.129 µM). Also, the minimum inhibitory concentration (MIC) in assay [1] (M. tuberculosis No. 40) turned out to be 0.05 µg/mL (≈ 0.129 µM); in assay [1] (M. tuberculosis No. 68), 0.10 µg/mL (≈ 0.258 µM); in the assay with M. avium (M. avium N-357), 0.39 µg/mL (≈ 1.01 µM); against M. avium (M. avium N-444), 0.78 µg/mL (≈ 2.01 µM); against M. avium (M. avium N-458) it was 0.20 µg/mL (≈ 0.516 µM); with M. avium (M. avium N-472), 1.56 µg/mL (≈ 4.03 µM).
